Laboratory results as given in patent US5169863A, “Hypersphyxia-causing methods” (K.K. Ueno Seiyaku Oyo Kenkyujo, priority 1988, dated 1992).
Read-outs that look alike come from different tables or passages of the source.

What was measured:
[1] = changing rate of blood pressure and heart rate by intravenous injection in anesthetized rats; assay type: in vivo, Wister male rats; conditions: Rattus norvegicus, 1 (mg/kg)
Method: (blood pressure, heart rate increasing action by intravenous injection) Wister male rats (8 weeks old) were used as test animals. The rats were applied to anesthesia by intraperitoneal administration with 1.25 g/kg of urethane. The blood pressure was determined by inserting a polyethylene tube into a femoral artery, which was connected with a pressure transducer. The heart rate was determined from R wave of electrocardiograms (ECG) induced by standard limb lead II with a tachometer. Each test compound was dissolved in ethanol and intravenously administered to rats in 1 mg/kg diluted with Ringer's solution just before use. The maximum concentration of ethanol was 2 percent. An ethanol-containing Ringer without any test compound was used as a control to confirm the influence of the ethanol in each experiment. Each changing rate (%) in the blood pressure and heart rate before and after administration was determined, and the average of 3-4 experiments was shown in Table 1. Changing rates of blood pressure and heart rate were determined in the same manner as described in Example 1 except that the test compounds 60, 61 and 62 were used in different concentrations instead of the test compounds 1-55.

acute toxicity LD50 = assay type: in vivo
[2] = progressing a breath (change rate of breath rate); assay type: in vivo, Wister male rats; conditions: Rattus norvegicus, iv, tail vein, rats
Method: Wister male rats (8 weeks old) were applied to anesthesia by intraperitoneal administration with 1.25 g/kg of urethane. A pick-up for breath was fixed on a top of a rat's nose, and the breath curve was recorded on a polygraph while the breath rate was counted with a tachometer.
Each test compound was dissolved in ethanol and administered to rats through a tale vein in 1 mg/kg as diluted with Ringer's solution just before use. The maximum concentration of ethanol was 2 percent. Ringers solution containing ethanol but not containing test compound was administered at every experiment as a control. The change rates (%) of the breath rate before and after administration were determined, and evaluated as progressing activity of breath.

[3] = recovery of blood pressure and heart rate of rats in hemorrhage shock; assay type: in vivo, Wister male rats; conditions: intravenous, dehematized rats
Method: (Recovery of blood pressure and heart rate of rats in hemorrhage shock)
Wister male rats (8 weeks old) were applied to anesthesia by subcutaneous injection with 1.5 g/kg of urethane. The blood pressure and heart rate were determined according to the same manner as in Example 1.
The rats were kept for 60 minutes in a room after a blood corresponding to 1.5% of the weight was removed.
13,14-dihydro-6,15-diketo-19-methyl-PGE1 ethyl ester (compound number 15) was dissolved in Ringer's solution (0.1 ml), and the solution was intravenously administered into the above dehematized rat. Ringer's solution was administered to a control group.
The recovery rates of the blood pressure and heart rate were obtained assuming the value at 60 minutes after dehematizing being 0% and the value before dehematizing being 100% respectively. In these FIGS. (1), (2) and (3) represent a dose of 1 mg/kg, dose of 0.5 mg/kg and control respectively.
The same procedure as the above except that the compounds of (7), (18) and (22) were used instead of the compound (15) was applied, and the effects are observed, the results of which are also shown in Table 3.

[4] = changes in blood flow rate in carotid, blood pressure and heart rate; assay type: in vivo, Wister male rats; conditions: 1 mg/kg, femoral artery, 4 experiments
Method: Wister male rats (9 weeks old) were used.
The rats were applied to anesthesia by intraperitoneal administration with 1.25 g/kg of urethane. The blood flow rate in carotid was determined by a stromuhr. The blood pressure and heart rate were determined according to the same manner as in Example 1.
13,14-dihydro-6,15-diketo-19-methyl-PGE1 ethyl ester (sample number: 15) was dissolved in a small amount of ethanol, and then diluted with Ringer's solution more than 50 times. About 0.1 ml (1 mg drag/kg rat) of the diluted solution was administered to a rat through a polyethylene tube inserted into a femoral artery. The changes in blood flow rate (BF), blood pressure (BP), heart rate (HR) were observed, and the average of 4 experiments were shown in FIG. 1.

[5] = Table 1, read-out: changing rate of blood pressure
[6] = Table 1, read-out: changing rate of heart rate
[7] = mouse, in vivo, PO, male mice, read-out: LD50
[8] = mouse, in vivo, IP, male mice, read-out: LD50
[9] = mouse, in vivo, IV, male mice, read-out: LD50

Row | SMILES | change in vivo at 1 mg/kg [1, 5] [%] | change in vivo at 1 mg/kg [1, 6] [%] | LD50 (acute toxicity LD50; [7]) [mg/kg] | change in vivo at 1 mg/kg [2] [%] | recovering of blood pressure % ([3]; 0.5 mg/kg) [%] | recovering of heart rate % ([3]; 0.5 mg/kg) [%] | recovering of blood pressure % ([3]; 1.0 mg/kg) [%] | recovering of heart rate % ([3]; 1.0 mg/kg) [%] | LD50 (acute toxicity LD50; IP, female mice) [mg/kg] | LD50 (acute toxicity LD50; PO, female mice) [mg/kg] | LD50 (acute toxicity LD50; SC, female mice) [mg/kg] | LD50 (acute toxicity LD50; [8]) [mg/kg] | LD50 (acute toxicity LD50; mouse, in vivo, SC, male mice, read-out: LD50) [mg/kg] | change in blood flow rate (BF) in carotid ([4]; FIG. 1a) | change in blood pressure (BP) ([4]; FIG. 1b) | change in heart rate (HR) ([4]; FIG. 1c) | LD50 (acute toxicity LD50; [9]) [mg/kg]
1 | CCCCC(F)C(=O)CC[C@H]1[C@H](O)CC(=O)[C@@H]1C/C=C\CCCC(=O)OC (stereo partly drawn) [Compound 37, 13,14-dihydro-15-keto-16R,S-fluoro-PGE2 methyl ester] | 56 | 33 | > 500 |  |  |  |  |  |  |  |  |  |  |  |  |  | 
2 | CCCCC(F)C(=O)CC[C@H]1[C@H](O)CC(=O)[C@@H]1C/C=C\CCCC(=O)O (stereo partly drawn) [Compound 36, 13,14-dihydro-15-keto-16R,S-fluoro-PGE2] | 33 | 32 | > 500 |  |  |  |  |  |  |  |  |  |  |  |  |  | 
3 | CCCCCC(=O)CC[C@H]1[C@H](O)CC(=O)[C@@H]1C/C=C\CCCC(=O)OCC [Compound 22, 13,14-dihydro-15-keto-PGE2 ethyl ester] | 5 | 11 | > 4000 | 28 | 32 | 50 | 74 | 63 | > 500 | > 4000 | > 1000 | > 500 | > 1000 |  |  |  | 
4 | CCCCCC(=O)CC[C@H]1[C@H](O)CC(=O)[C@@H]1CCCCCCC(=O)OCC [Compound 2, 13,14-dihydro-15-keto-PGE1 ethyl ester] | 1 | 20 |  | 47 |  |  |  |  |  |  |  | > 1000 |  |  |  |  | 
5 | CCCCCC(=O)CC[C@H]1[C@H](C)CC(=O)[C@@H]1CC(=O)CCCCC(=O)OCC [Compound 18, 13,14-dihydro-6,15-diketo-11-dehydroxy-11R-methyl-PGE1 ethyl ester] | 18 | 17 |  | 28 | 87 | 100 | 119 | 100 |  |  |  |  |  |  |  |  | 
6 | CCOC(=O)CCCCC(=O)C[C@H]1C(=O)C[C@@H](O)[C@@H]1CCC(=O)CCCC(C)C [Compound 15, 13,14-dihydro-6,15-diketo-19-methyl-PGE1 ethyl ester] | 12 | 19 |  | 26 | 39 | 62 | 68 | 100 |  |  |  |  |  | extremely increase | extremely increase | extremely increase | > 300
7 | CCCCCC(=O)CC[C@H]1[C@H](O)CC(=O)[C@@H]1CC(=O)CCCCC(=O)OCC [Compound 7, 13,14-dihydro-6,15-diketo-PGE1 ethyl ester] | 5 |  |  | 31 | 38 | 46 | 63 | 62 |  |  |  |  |  |  |  |  | 
8 | CCCCCC(=O)CC[C@H]1[C@H](O)CC(=O)[C@@H]1C/C=C\CCCC(=O)OC [Compound 21, 13,14-dihydro-15-keto-PGE2 methyl ester] | 18 | 35 |  | 29 |  |  |  |  |  |  |  |  |  |  |  |  | > 1000
